Consider 1 compound from patent publication US20020177120A1, “ASSAYS FOR APOTOSIS MODULATORS” (priority 1999, published 2002).

The assay relates to F9-1-13 cells. The assay can be described thus: Cell-based FRET reporter assay in F9-1-13 (SgAT) cells. Further details: species or system human. From the text: Transfection of pcDNA3VH-SgAT and pcDNA3VH-SnAT into U-138 cells (using methods described above) resulted initially in few colonies and FRET signal was lost in many clones during expansion, however, from among the various subclones the F9-1-13 (pcDNA3VH-SgAT transfected; ATCC No. PTA-84) and F10-24-2 (pcDNA3-SnAT transfected) subclones were eventually expanded and shown to express stable FRET signals. As desired, the FRET signal expressed in F9-1-13 decreased in response to both staurosporin and anti-Fas antibody treatment of cells, while the FRET signal expressed by the F10-24-2 control cells, (i.e., lacking a caspase substrate domain), was unaffected following staurosporin or anti-Fas antibody treatment. […] F9-1-13 therefore appeared suitable for microtiter assays, and perhaps use in HTS assays for screening to identify and select modulators of apoptosis.
Studies were initiated to adapt the experimental cell-based FRET assay of EXAMPLE 5 to a format suitable for use in high-throughput screening. First, the assay was scaled down from a 24-well to a 96-well plate format. Cells from three different F9 parental cultures were plated in a black-sided 96-well plates (Costar #3904) at a density of 32,000 cells/well (˜1×10^5 cells/cm^2); allowed to adhere overnight; and then the media was replaced with either 100 μl fresh media containing inducer (5 μM staurosporin in 0.25% DMSO vehicle) or 100 μl containing only vehicle (0.25% DMSO). After an overnight incubation, fluorescence measurements were made to evaluate FRET signal changes. […] The assay therefore appeared to be adaptable to a 96-well format but it was not initially clear how signal might be improved to increase the signal-to-background ratio.
A 96-well FRET assay was evaluated for inter-assay well variability and inter-plate variability. Possible signal drift during measurement of the FRET fluorescence signal was evaluated using one of two different robotics-compatible rapid fluorescence plate readers (SpeedReader or Cytofluor II). After plating at an initial density of about 60,000 cells/well, and overnight culture F9-1-13 cells were treated with 5 μM staurosporin, or vehicle. After an overnight incubation in staurosporin (i.e., 16-24 hrs.), the plates were either washed, or not washed, and then assayed repeatedly over the next 1.5 hours using either of the plate readers. […] However, using the same assay conditions but with anti-Fas antibody as an inducer, different results were recorded. […] The basis for the observed differences in measuring devices is not clear, but may relate to the design of the light source and/or the sensitivity of the detection circuitry in the two different respective fluorescence readers as well as possible different means for optically or digitally subtracting background incident radiation.
Assay Confirmation: The following experiment was performed to validate the ability of the 96-well FRET assay to detect inhibitors of apoptosis: namely, F9-1-13 cells (n=5 wells) were treated with 50-100 μM Z-VAD-fmk (a broad spectrum caspase inhibitor) or vehicle (n=55) in randomized wells of a 96-well plate. All of these wells, and six additional positive control wells (i.e., lacking the inhibitor), were treated with 5 μM staurosporine in 0.25% DMSO vehicle. Six negative control wells were treated with vehicle only (0.25% DMSO). After overnight incubation, FRET signal changes were evaluated as described above.
Three alternatives to staurosporine induction were evaluated: serum withdrawal; c2-ceramide treatment; and induction via engagement of the CD95/Fas receptor with anti-Fas antibody. […] To increase the proportion of adherent cells, poly-D-lysine and 0.1% gelatin were evaluated in anti-Fas antibody treated F9-1-13 cells. […] Anti-Fas antibody was therefore chosen as a preferred inducer of apoptosis for high-throughput screening. […]
A general note: Reporter assays use an easily measured gene product as a stand-in for the process of interest.

Take `CN[C@@H]1C[C@H]2O[C@@](C)([C@@H]1OC)n1c3ccccc3c3c4c(c5c6ccccc6n2c5c31)C(=O)NC4` [staurosporin]: for the setting “96-well, three F9 parental cultures, 32,000 cells/well, 5 μM overnight”, the “FRET signal compared to the vehicle control” value was “significant (P<0.05) reduction in the FRET signal”. In addition, under “60,000 cells/well, 5 μM, either fluorescence reader”, the “time to measurable changes in FRET signal” value is no more than 4 h. Moreover, the “FRET signal response to inducer treatment” value (F9-1-13 subclone) is “decreased”. Besides, the “FRET reporter cleavage by western blot after induction” value (staurosporin induction) is “significant (but not complete) cleavage of reporter”.
